From patent US11713344B2 (DONG-A ST CO., LTD., priority 2017, dated 2023)

Experiments:
Human glucagon receptors = Human glucagon receptors (Homo sapiens, UniProt P47871); assay: Glucagon receptor activation assay (CRE-luciferase reporter, CHO-K1)
Protocol: (§1) Then, the resulting increased luciferase activity was evaluated as a measurement of the effect on each receptor activation.
(§2) After 3 hours of transfection, medium was exchanged to Alpha Minimal Essential Medium (α-MEM) comprising 10% fetal bovine serum (FBS). Next day, the medium was exchanged to α-MEM comprising the analog of the present invention and 0.1% bovine serum albumin (BSA). After 6 hours, dual luciferase assay reagent was added in the same amount as the medium in which the cells were submerged, and firefly luciferase and Renilla luciferase activities were continuously measured. Firefly luciferase activity values were corrected against Renilla luciferase activity to yield transfection efficiency.

Human GLP-1 receptors = Human GLP-1 receptors (Homo sapiens, UniProt P43220); assay: GLP-1 receptor activation assay (CRE-luciferase reporter, CHO-K1)
Chain of Human GLP-1 receptors (P43220 24-463): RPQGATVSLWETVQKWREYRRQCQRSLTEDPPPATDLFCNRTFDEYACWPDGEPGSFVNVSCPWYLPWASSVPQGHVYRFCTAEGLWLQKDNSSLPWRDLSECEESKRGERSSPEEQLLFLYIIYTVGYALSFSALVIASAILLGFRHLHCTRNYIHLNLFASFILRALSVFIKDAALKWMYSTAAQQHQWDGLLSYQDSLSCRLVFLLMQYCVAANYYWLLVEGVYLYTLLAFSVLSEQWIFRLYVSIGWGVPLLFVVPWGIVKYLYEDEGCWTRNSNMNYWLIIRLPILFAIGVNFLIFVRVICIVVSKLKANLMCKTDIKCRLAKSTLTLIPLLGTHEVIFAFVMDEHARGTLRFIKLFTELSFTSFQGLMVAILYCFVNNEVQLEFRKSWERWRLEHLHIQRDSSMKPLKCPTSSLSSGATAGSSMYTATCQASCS
Protocol: as §1, §2

Chain of Human glucagon receptors (P47871 26-477): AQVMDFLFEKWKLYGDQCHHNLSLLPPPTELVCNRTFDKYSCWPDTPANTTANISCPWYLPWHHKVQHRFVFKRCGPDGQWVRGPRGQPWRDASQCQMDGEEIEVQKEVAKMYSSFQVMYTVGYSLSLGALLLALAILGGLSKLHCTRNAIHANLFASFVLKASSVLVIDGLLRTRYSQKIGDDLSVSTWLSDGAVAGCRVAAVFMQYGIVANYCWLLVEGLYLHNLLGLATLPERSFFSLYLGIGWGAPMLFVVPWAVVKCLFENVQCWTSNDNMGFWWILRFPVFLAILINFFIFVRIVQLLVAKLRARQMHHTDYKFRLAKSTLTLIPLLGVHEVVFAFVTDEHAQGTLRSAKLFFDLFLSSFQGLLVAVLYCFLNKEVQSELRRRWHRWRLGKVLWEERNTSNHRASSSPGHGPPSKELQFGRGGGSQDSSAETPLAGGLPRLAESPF

Row | Structure (SMILES) | EC50 (Human glucagon receptors) [nM] | EC50 (Human GLP-1 receptors) [nM]
1 | CCCCCCCCCCCCCCCCCC(=O)N[C@@H](CCC(=O)NCCOCCOCC(=O)NCCOCCOCC(=O)NCCCC[C@H](NC(=O)[C@H](CC(=O)O)NC(=O)[C@H](CO)NC(=O)[C@@H](NC(=O)[C@H](Cc1ccccc1)NC(=O)[C@@H](NC(=O)CNC(=O)[C@H](CCC(N)=O)NC(=O)C(C)(C)NC(=O)[C@@H](N)Cc1c[nH]cn1)[C@@H](C)O)[C@@H](C)O)C(=O)N[C@@H](CO)C(=O)N[C@@H](CCCCN)C(=O)N[C@@H](Cc1ccc(O)cc1)C(=O)N[C@@H](CC(C)C)C(=O)N[C@@H](CC(=O)O)C(=O)N[C@H]1CCC(=O)NCCCC[C@@H](C(=O)N[C@@H](CC(=O)O)C(=O)N[C@@H](Cc2ccccc2)C(=O)N[C@H](C(=O)N[C@@H](CCC(N)=O)C(=O)N[C@@H](Cc2c[nH]c3ccccc23)C(=O)N[C@@H](CC(C)C)C(=O)N[C@@H](CCSC)C(=O)N[C@@H](CC(N)=O)C(=O)N[C@H](C(=O)N[C@@H](CCCCN)C(=O)O)[C@@H](C)O)C(C)C)NC(=O)[C@H](C)NC(=O)[C@H](CCCNC(=N)N)NC(=O)[C@H](CCCNC(=N)N)NC1=O)C(=O)O [Compound 14, H-HAibQGTFTSDZSKYLDERRAKDFVQWLMNTK-OH] | < 0.01 | < 0.01
2 | CCCCCCCCCCCCCCCCCC(=O)N[C@@H](CCC(=O)NCCOCCOCC(=O)NCCOCCOCC(=O)NCCCC[C@H](NC(=O)[C@H](CC(=O)O)NC(=O)[C@H](CC(C)C)NC(=O)[C@H](Cc1ccc(O)cc1)NC(=O)[C@H](CCCCN)NC(=O)[C@H](CO)NC(=O)[C@H](Cc1ccc(O)cc1)NC(=O)[C@H](CC(=O)O)NC(=O)[C@H](CO)NC(=O)[C@@H](NC(=O)[C@H](Cc1ccccc1)NC(=O)[C@@H](NC(=O)CNC(=O)[C@H](CCC(N)=O)NC(=O)C(C)(C)NC(=O)[C@@H](N)Cc1c[nH]cn1)[C@@H](C)O)[C@@H](C)O)C(=O)N[C@@H](CCCNC(=N)N)C(=O)N[C@@H](CCCNC(=N)N)C(=O)N[C@@H](C)C(=O)N[C@@H](CCC(N)=O)C(=O)N[C@@H](CC(=O)O)C(=O)N[C@@H](Cc1ccccc1)C(=O)N[C@H](C(=O)N[C@@H](CCC(N)=O)C(=O)N[C@@H](Cc1c[nH]c2ccccc12)C(=O)N[C@@H](CC(C)C)C(=O)N[C@@H](CCSC)C(=O)N[C@@H](CC(N)=O)C(=O)N[C@H](C(=O)N[C@@H](CCCCN)C(=O)O)[C@@H](C)O)C(C)C)C(=O)O [Compound 15, H-HAibQGTFTSDYSKYLDZRRAQDFVQWLMNTK-OH] | < 0.01 | < 0.01
3 | CCCCCCCCCCCCCCCCCC(=O)N[C@@H](CCC(=O)NCCOCCOCC(=O)NCCOCCOCC(=O)NCCCC[C@H](NC(=O)[C@H](C)NC(=O)[C@H](CCCNC(=N)N)NC(=O)[C@H](CCCNC(=N)N)NC(=O)C(C)(C)NC(=O)[C@H](CC(=O)O)NC(=O)[C@H](CC(C)C)NC(=O)[C@H](Cc1ccc(O)cc1)NC(=O)[C@H](CCCCN)NC(=O)[C@H](CO)NC(=O)[C@H](Cc1ccc(O)cc1)NC(=O)[C@H](CC(=O)O)NC(=O)[C@H](CO)NC(=O)[C@@H](NC(=O)[C@H](Cc1ccccc1)NC(=O)[C@@H](NC(=O)CNC(=O)[C@H](CCC(N)=O)NC(=O)C(C)(C)NC(=O)[C@@H](N)Cc1c[nH]cn1)[C@@H](C)O)[C@@H](C)O)C(=O)N[C@@H](CC(=O)O)C(=O)N[C@@H](Cc1ccccc1)C(=O)N[C@H](C(=O)N[C@@H](CCC(N)=O)C(=O)N[C@@H](Cc1c[nH]c2ccccc12)C(=O)N[C@@H](CC(C)C)C(=O)N[C@@H](CCSC)C(=O)N[C@@H](CC(N)=O)C(=O)N[C@H](C(=O)N[C@@H](CCCCN)C(=O)O)[C@@H](C)O)C(C)C)C(=O)O [Compound 16] | < 0.01 | < 0.01
4 | CCCCCCCCCCCCCCCCCC(=O)N[C@@H](CCC(=O)NCCOCCOCC(=O)NCCOCCOCC(=O)NCCCC[C@H](NC(=O)[C@H](CC(=O)O)NC(=O)[C@H](CO)NC(=O)[C@@H](NC(=O)[C@H](Cc1ccccc1)NC(=O)[C@@H](NC(=O)CNC(=O)[C@H](CCC(N)=O)NC(=O)C(C)(C)NC(=O)[C@@H](N)Cc1c[nH]cn1)[C@@H](C)O)[C@@H](C)O)C(=O)N[C@@H](CO)C(=O)N[C@@H](CCCCN)C(=O)N[C@@H](Cc1ccc(O)cc1)C(=O)N[C@@H](CC(C)C)C(=O)N[C@@H](CC(=O)O)C(=O)N[C@H]1CCC(=O)NCCCC[C@@H](C(=O)N[C@@H](CC(=O)O)C(=O)N[C@@H](Cc2ccccc2)C(=O)N[C@H](C(=O)N[C@@H](CCC(N)=O)C(=O)N[C@@H](Cc2c[nH]c3ccccc23)C(=O)N[C@@H](CC(C)C)C(=O)N[C@@H](CCSC)C(=O)N[C@@H](CC(N)=O)C(=O)N[C@H](C(=O)N[C@@H](CCCCN)C(N)=O)[C@@H](C)O)C(C)C)NC(=O)[C@H](C)NC(=O)[C@H](CCCNC(=N)N)NC(=O)[C@H](CCCNC(=N)N)NC1=O)C(=O)O [Compound 19, H-HAibQGTFTSDZSKYLDERRAKDFVQWLMNTK-NH2] | < 0.01 | < 0.01
5 | CCCCCCCCCCCCCCCCCC(=O)N[C@@H](CCC(=O)NCCOCCOCC(=O)NCCOCCOCC(=O)NCCOCCOCC(=O)NCCCC[C@H](NC(=O)[C@H](CC(=O)O)NC(=O)[C@H](CO)NC(=O)[C@@H](NC(=O)[C@H](Cc1ccccc1)NC(=O)[C@@H](NC(=O)CNC(=O)[C@H](CCC(N)=O)NC(=O)C(C)(C)NC(=O)[C@@H](N)Cc1c[nH]cn1)[C@@H](C)O)[C@@H](C)O)C(=O)N[C@@H](CO)C(=O)N[C@@H](CCCCN)C(=O)N[C@@H](Cc1ccc(O)cc1)C(=O)N[C@@H](CC(C)C)C(=O)N[C@@H](CC(=O)O)C(=O)N[C@H]1CCC(=O)NCCCC[C@@H](C(=O)N[C@@H](CC(=O)O)C(=O)N[C@@H](Cc2ccccc2)C(=O)N[C@H](C(=O)N[C@@H](CCC(N)=O)C(=O)N[C@@H](Cc2c[nH]c3ccccc23)C(=O)N[C@@H](CC(C)C)C(=O)N[C@@H](CCSC)C(=O)N[C@@H](CC(N)=O)C(=O)N[C@H](C(=O)N[C@@H](CCCCN)C(=O)O)[C@@H](C)O)C(C)C)NC(=O)[C@H](C)NC(=O)[C@H](CCCNC(=N)N)NC(=O)[C@H](CCCNC(=N)N)NC1=O)C(=O)O [Compound 20, H-HAibQGTFTSDZSKYLDERRAKDFVQWLMNTK-OH] | < 0.01 | < 0.01
6 | CCCCCCCCCCCCCCCCCC(=O)N[C@@H](CCC(=O)NCCOCCOCC(=O)NCCOCCOCC(=O)NCCCC[C@H](NC(=O)[C@H](CC(=O)O)NC(=O)[C@H](CO)NC(=O)[C@@H](NC(=O)[C@H](Cc1ccccc1)NC(=O)[C@@H](NC(=O)CNC(=O)[C@H](CCC(N)=O)NC(=O)C(C)(C)NC(=O)[C@@H](N)Cc1c[nH]cn1)[C@@H](C)O)[C@@H](C)O)C(=O)N[C@@H](CO)C(=O)N[C@@H](CCCCN)C(=O)N[C@@H](Cc1ccc(O)cc1)C(=O)N[C@@H](CC(C)C)C(=O)N[C@@H](CC(=O)O)C(=O)N[C@H]1CSCc2cccc(c2)CSC[C@@H](C(=O)N[C@@H](CC(=O)O)C(=O)N[C@@H](Cc2ccccc2)C(=O)N[C@H](C(=O)N[C@@H](CCC(N)=O)C(=O)N[C@@H](Cc2c[nH]c3ccccc23)C(=O)N[C@@H](CC(C)C)C(=O)N[C@@H](CCSC)C(=O)N[C@@H](CC(N)=O)C(=O)N[C@H](C(=O)N[C@@H](CCCCN)C(=O)O)[C@@H](C)O)C(C)C)NC(=O)[C@H](C)NC(=O)[C@H](CCCNC(=N)N)NC(=O)[C@H](CCCNC(=N)N)NC1=O)C(=O)O [Compound 22, H-HAibQGTFTSDZSKYLDCRRACDFVQWLMNTK-OH] | < 0.01 | < 0.01
7 | CCCCCCCCCCCCCCCCCC(=O)N[C@@H](CCC(=O)NCCOCCOCC(=O)NCCOCCOCC(=O)NCCOCCOCC(=O)NCCOCCOCC(=O)NCCCC[C@H](NC(=O)[C@H](CC(=O)O)NC(=O)[C@H](CO)NC(=O)[C@@H](NC(=O)[C@H](Cc1ccccc1)NC(=O)[C@@H](NC(=O)CNC(=O)[C@H](CCC(N)=O)NC(=O)C(C)(C)NC(=O)[C@@H](N)Cc1c[nH]cn1)[C@@H](C)O)[C@@H](C)O)C(=O)N[C@@H](CO)C(=O)N[C@@H](CCCCN)C(=O)N[C@@H](Cc1ccc(O)cc1)C(=O)N[C@@H](CC(C)C)C(=O)N[C@@H](CC(=O)O)C(=O)N[C@H]1CCC(=O)NCCCC[C@@H](C(=O)N[C@@H](CC(=O)O)C(=O)N[C@@H](Cc2ccccc2)C(=O)N[C@H](C(=O)N[C@@H](CCC(N)=O)C(=O)N[C@@H](Cc2c[nH]c3ccccc23)C(=O)N[C@@H](CC(C)C)C(=O)N[C@@H](CCSC)C(=O)N[C@@H](CC(N)=O)C(=O)N[C@H](C(=O)N[C@@H](CCCCN)C(N)=O)[C@@H](C)O)C(C)C)NC(=O)[C@H](C)NC(=O)[C@H](CCCNC(=N)N)NC(=O)[C@H](CCCNC(=N)N)NC1=O)C(=O)O [Compound 24, H-HAibQGTFTSDZSKYLDERRAKDFVQWLMNTK-NH2] | 0.01 to 0.1 | < 0.01
8 | CCCCCCCCCCCCCCCCCC(=O)N[C@@H](CCC(=O)NCCOCCOCC(=O)NCCOCCOCC(=O)NCCOCCOCC(=O)NCCOCCOCC(=O)NCCCC[C@H](NC(=O)[C@H](CC(=O)O)NC(=O)[C@H](CO)NC(=O)[C@@H](NC(=O)[C@H](Cc1ccccc1)NC(=O)[C@@H](NC(=O)CNC(=O)[C@H](CCC(N)=O)NC(=O)C(C)(C)NC(=O)[C@@H](N)Cc1c[nH]cn1)[C@@H](C)O)[C@@H](C)O)C(=O)N[C@@H](CO)C(=O)N[C@@H](CCCCN)C(=O)N[C@@H](Cc1ccc(O)cc1)C(=O)N[C@@H](CC(C)C)C(=O)N[C@@H](CC(=O)O)C(=O)N[C@H]1CCC(=O)NCCCC[C@@H](C(=O)N[C@@H](CC(=O)O)C(=O)N[C@@H](Cc2ccccc2)C(=O)N[C@H](C(=O)N[C@@H](CCC(N)=O)C(=O)N[C@@H](Cc2c[nH]c3ccccc23)C(=O)N[C@@H](CC(C)C)C(=O)N[C@@H](CCSC)C(=O)N[C@@H](CC(N)=O)C(=O)N[C@H](C(=O)N[C@@H](CCCCN)C(=O)O)[C@@H](C)O)C(C)C)NC(=O)[C@H](C)NC(=O)[C@H](CCCNC(=N)N)NC(=O)[C@H](CCCNC(=N)N)NC1=O)C(=O)O [Compound 25, H-HAibQGTFTSDZSKYLDERRAKDFVQWLMNTK-OH] | < 0.01 | < 0.01
